Source: ChEMBL document CHEMBL5233269, “Anticancer potential of spirocompounds in medicinal chemistry: A pentennial expedition” (Eur J Med Chem, 2021)
Values belong to the compound of their own block, whether it stands above or below them.

Tests used:
K562 = assay: Anticancer activity against human K562 cells; format: functional, cell-based
A549 [1] = assay: Cytotoxicity against human A549 cells; format: functional, cell-based
HCT-116 [2] = assay: Cytotoxicity against human HCT-116 cells; format: functional, cell-based
SW-620 = assay: Cytotoxicity against human SW620 cells; format: functional, cell-based
PC-3 [3] = assay: Cytotoxicity against human PC-3 cells; format: functional, cell-based
MDA-MB-435 = assay: Growth inhibition of human MDA-MB-435 cells by SRB assay; format: functional
MCF7 [4] = assay: Growth inhibition of human MCF7 cells by SRB assay; format: functional
HepG2 [5] = assay: Anticancer activity against human HepG2 cells; format: functional, cell-based
MCF7 [6] = assay: Anticancer activity against human MCF7 cells assessed as inhibition of cell viability; format: functional, cell-based
[7] = Cytotoxicity against human HBF4 cells incubated for 48 hrs by SRB assay relative to control; format: toxicity, cell-based; parameters: concentration or dose not given beside the values; details: hbf4, 48 h
HepG2 [8] = assay: Cytotoxicity against human HepG2 cells incubated for 48 hrs by SRB assay relative to control; format: functional; parameters: concentration or dose not given beside the values
MCF7 [9] = assay: Cytotoxicity against human MCF7 cells incubated for 48 hrs by SRB assay relative to control; format: functional; parameters: concentration or dose not given beside the values
HCT-116 [10] = assay: Anticancer activity against human HCT-116 cells assessed as inhibition of cell growth; format: functional, cell-based
PC-3 [11] = assay: Anticancer activity against human PC-3 cells assessed as inhibition of cell growth; format: functional, cell-based
HepG2 [12] = assay: Anticancer activity against human HepG2 cells assessed as inhibition of cell viability; format: functional, cell-based
B16-F10 = assay: Anticancer activity against mouse B16-F10 cells incubated for 48 hrs by MTT assay; format: functional, cell-based; details: B16-F10, 48 h
A549 [13] = assay: Anticancer activity against human A549 cells assessed as reduction in cell viability incubated for 48 hrs by MTT assay; format: functional, cell-based; details: A549, 48 h
MCF7 [14] = assay: Anticancer activity against human MCF7 cells assessed as reduction in cell viability incubated for 48 hrs by MTT assay; format: functional, cell-based; details: MCF7, 48 h
A549 [15] = assay: Cytotoxicity against human A549 cells assessed as inhibition of tumor cell proliferation incubated for 72 hrs by MTT assay; format: functional, cell-based; details: A549, 72 h
HeLa = assay: Anticancer activity against human HeLa cells; format: functional, cell-based
A549 [16] = assay: Anticancer activity against human A549 cells assessed as inhibition of cell proliferation; format: functional, cell-based
MCF7 [17] = assay: Anticancer activity against human MCF7 cells; format: functional, cell-based
DU-145 = assay: Anticancer activity against human DU-145 cells; format: functional, cell-based
L02 = assay: Antiproliferative activity against human L02 cells by MTT assay; format: functional, cell-based
[18] = target: T1, Amine oxidase [flavin-containing] A (Rattus norvegicus, UniProt P21396); assay: Inhibition of rat brain MAO-A relative to control; format: tissue-based
T1 sequence (P21396 whole entry): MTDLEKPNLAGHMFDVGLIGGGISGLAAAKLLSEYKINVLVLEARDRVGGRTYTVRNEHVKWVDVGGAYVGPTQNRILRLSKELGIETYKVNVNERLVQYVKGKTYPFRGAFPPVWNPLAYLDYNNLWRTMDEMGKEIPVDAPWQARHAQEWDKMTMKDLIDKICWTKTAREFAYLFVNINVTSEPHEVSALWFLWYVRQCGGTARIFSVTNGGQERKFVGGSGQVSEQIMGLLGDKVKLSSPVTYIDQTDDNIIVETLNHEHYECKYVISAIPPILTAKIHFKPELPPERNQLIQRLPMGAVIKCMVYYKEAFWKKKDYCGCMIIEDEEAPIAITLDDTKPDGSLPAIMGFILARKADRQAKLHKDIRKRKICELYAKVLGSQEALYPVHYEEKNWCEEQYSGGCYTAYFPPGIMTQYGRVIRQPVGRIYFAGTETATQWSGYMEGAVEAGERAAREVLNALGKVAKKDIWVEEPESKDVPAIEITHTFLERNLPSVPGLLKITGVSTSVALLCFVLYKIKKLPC

IC50 (K562): 8.8 µM
SMILES: CCN1C(=O)[C@@]2(c3cccc(Cl)c31)[C@H](O)c1ccccc1[C@@H]2[C@]1(CN2CCCC2)C(=O)N(CC)c2c(Cl)cccc21

SMILES: O=C(C1CN(C(=O)N2CCCCC2)C2(C(=O)Nc3ccccc32)C1c1ccc(Cl)cc1O)N1CCOCC1 (stereo not given)
IC50 (A549 [1]): 36.8 µM
IC50 (HCT-116 [2]): > 50 µM
IC50 (SW-620): < 0.08 µM
IC50 (PC-3 [3]): > 50 µM

GI50 (MDA-MB-435): 2.1 µM
GI50 (MCF7 [4]): > 100 µM
SMILES: N#CC1=C(N)OC2=C(C(=O)c3ccccc32)C12C(=O)Nc1ccc(Cl)cc12 (stereo not given)

IC50 (HepG2 [5]): 39 µM
IC50 (MCF7 [6]): 32 µM
SMILES: N#CC1=C(N)NC2=C(CCCCCC2)C12C(=O)Nc1ccccc12 (stereo not given)

IC50 (K562): 21 µM
SMILES: CN1C(=O)[C@@]2(c3cccc(Cl)c31)[C@H](O)c1ccccc1[C@@H]2[C@]1(CN2CCCC2)C(=O)N(C)c2c(Cl)cccc21

SMILES: CC1(C)CC(=O)C2=C(C1)N(c1ccc(Cl)cc1)C(N)=C(C#N)C21C(=O)Nc2ccccc21 (stereo not given)
Activity [7]: 30%
Activity (HepG2 [8]): 38%
Activity (MCF7 [9]): 79%

IC50 (HCT-116 [10]): 0.0958 µM
IC50 (PC-3 [11]): 0.282 µM
IC50 (HepG2 [12]): 0.285 µM
SMILES: Cc1ccc(-c2nc(SC3O[C@H](CO)[C@@H](O)[C@H](O)[C@H]3O)nc3c2SC2(CCCCC2)N3c2ccc(F)cc2)o1 (stereo not given in full)

IC50 (B16-F10): 19.3 µM
IC50 (A549 [13]): 17.9 µM
IC50 (MCF7 [14]): 15.3 µM
SMILES: COC1=CC2(C=C(C(=O)NNc3ccc(OC(F)(F)F)cc3)c3cc(OC)cc(OC)c32)C(OC)=CC1=O (stereo not given)

GI50 (MDA-MB-435): > 100 µM
GI50 (MCF7 [4]): 90.9 µM
SMILES: N#CC1=C(N)OC2=C(C(=O)c3ccccc32)C12C(=O)Nc1ccc(F)cc12 (stereo not given)

IC50 (HCT-116 [10]): 0.107 µM
IC50 (PC-3 [11]): 9.49 µM
IC50 (HepG2 [12]): 0.599 µM
SMILES: CC1CCC2(CC1)SC/C(=N\c1nnc(SC3OC[C@@H](O)[C@H](O)[C@H]3O)s1)N2c1ccc(F)cc1 (stereo not given in full)

IC50 (K562): 26.7 µM
SMILES: CCN(CC)C[C@@]1([C@H]2c3ccccc3[C@@H](O)[C@]23C(=O)N(C)c2c(C)cccc23)C(=O)N(C)c2c(C)cccc21

GI50 (MDA-MB-435): > 100 µM
GI50 (MCF7 [4]): 62 µM
SMILES: N#CC1=C(N)OC2=C(C(=O)c3ccccc32)C12C(=O)Nc1ccc(I)cc12 (stereo not given)

IC50 (B16-F10): 10.9 µM
IC50 (A549 [13]): 9.58 µM
IC50 (MCF7 [14]): 13.1 µM
SMILES: COC1=CC2(C=C(C(=O)Oc3cccc(F)c3F)c3cc(OC)cc(OC)c32)C(OC)=CC1=O (stereo not given)

SMILES: C[C@]12CC[C@H](O)CC1=CCC1C2CC[C@@]2(C)C1CC[C@@H]2C1=CC2(C(=O)Nc3ccc(Cl)cc32)C(C#N)=C(N)N1 (stereo not given in full)
IC50 (A549 [15]): 11.5 µM

IC50 (HeLa): 9.58 µM
IC50 (A549 [16]): 1.55 µM
IC50 (MCF7 [17]): 2.14 µM
IC50 (DU-145): 1.35 µM
SMILES: Cc1ccc2c(c1)C1(Nc3ccccc3NC3COC(=O)C31)C(=O)N2 (stereo not given)

IC50 (K562): 21.4 µM
SMILES: CCN1C(=O)[C@@]2(c3cccc(C)c31)[C@H](O)c1ccccc1[C@@H]2[C@]1(CN2CCCC2)C(=O)N(CC)c2c(C)cccc21

SMILES: Cc1coc2c1C(=O)C(=O)c1c-2ccc2c1CCCC2(C)C [TANSHINONE IIA]
IC50 (L02): 65.3 µM

IC50 (K562): 27.8 µM
SMILES: CCN(CC)C[C@@]1([C@H]2c3ccccc3[C@@H](O)[C@]23C(=O)N(C)c2ccc(C)cc23)C(=O)N(C)c2ccc(C)cc21

IC50 (HeLa): 15.9 µM
IC50 (A549 [16]): 3.89 µM
IC50 (MCF7 [17]): 9.28 µM
IC50 (DU-145): 2.19 µM
SMILES: O=C1OCC2Nc3ccccc3NC3(C(=O)N(Cc4ccccc4)c4ccc(Cl)cc43)C12 (stereo not given)

IC50 (B16-F10): 20.9 µM
IC50 (A549 [13]): 20.4 µM
IC50 (MCF7 [14]): 15.6 µM
SMILES: COC1=CC2(C=C(C(=O)NNc3ccc(F)c(F)c3)c3cc(OC)cc(OC)c32)C(OC)=CC1=O (stereo not given)

inhibition (INH) [18]: 58%
SMILES: CCn1c(=S)[nH]c2c(c1=O)C1(CCCCC1)Cc1ccccc1-2

GI50 (MDA-MB-435): 1.8 µM
GI50 (MCF7 [4]): > 100 µM
SMILES: N#CC1=C(N)OC2=C(C(=O)c3ccccc32)C12C(=O)Nc1ccc(Br)cc12 (stereo not given)

inhibition (INH) [18]: 86%
SMILES: CCCN(CCC)C(=O)CSc1nc2c(c(=O)n1CC)C1(CCCCC1)Cc1ccccc1-2

inhibition (INH) [18]: 66%
SMILES: CCn1c(SCC(=O)Nc2ccccc2Cl)nc2c(c1=O)C1(CCCCC1)Cc1ccccc1-2
